Results reported in US20090247465A1, “Novel Use of Bivalirudin in the Treatment of Acute Coronary Syndrome” (priority 2008, published 2009).

How the values were obtained:
[1] = system: patients with moderate and high risk NSTE-ACS; experiment: ACUITY analysis: clinical outcomes at 30 days, consistent UFH/enoxaparin plus GP IIb/IIIa inhibitor vs switch to bivalirudin, and antithrombin-naïve patients; details: human, in vivo
Text: A total of 4215 patients received prior antithrombin therapy with either UFH or enoxaparin before randomization. Of these, 2137 were randomized to receive the same antithrombin plus a GP IIb/IIIa inhibitor (consistent), while 2078 patients were randomized to receive bivalirudin (switch). There were 2889 patients naïve to antithrombin therapy at randomization, and of these, 1462 patients were randomized to UFH/enoxaparin plus a GP IIb/IIIa inhibitor and 1427 to bivalirudin monotherapy (FIG. 1).
At 30 days, there was no difference in composite ischemia between the two groups: 6.9% for patients switched to bivalirudin vs. 7.4% for patients remaining on consistent UFH/enoxaparin ([RR 0.93; 0.75-1.16], p=0.52). […] Transfusions were also lower in the patients switched to bivalirudin vs. patients remaining on consistent UFH/enoxaparin (1.5% vs. 2.6% [RR 0.60; 0.39-0.92], p=0.02). (Table 2, FIG. 2).
Tables 3a and 3b show clinical outcomes according to type of heparin therapy (UFH or enoxaparin) in patients on prior antithrombin therapy and in patients naive to antithrombin therapy. […]

[2] = system: patients with moderate and high risk NSTE-ACS; details: ACUITY; bivalirudin monotherapy vs UFH/enoxaparin plus a GP IIb/IIIa inhibitor; cited from earlier work
[3] = in vivo; cited from earlier work

Row | Compound | Major bleeding, number of patients [1] | Transfusion, number of patients [1] | absolute reduction in major bleeding [2] [%] | relative reduction in major bleeding [2] [%] | doses not causing adverse effects [3]
1 | enoxaparin | 42 | 19 | – | – | –
2 | CC[C@H](C)[C@H](NC(=O)[C@H](CCC(=O)O)NC(=O)[C@H](CCC(=O)O)NC(=O)[C@H](Cc1ccccc1)NC(=O)[C@H](CC(=O)O)NC(=O)CNC(=O)[C@H](CC(N)=O)NC(=O)CNC(=O)CNC(=O)CNC(=O)CNC(=O)[C@@H]1CCCN1C(=O)[C@H](CCCNC(=N)N)NC(=O)[C@@H]1CCCN1C(=O)[C@H](N)Cc1ccccc1)C(=O)N1CCC[C@H]1C(=O)N[C@@H](CCC(=O)O)C(=O)N[C@@H](CCC(=O)O)C(=O)N[C@@H](Cc1ccc(O)cc1)C(=O)N[C@@H](CC(C)C)C(=O)O [Bivalirudin, bivalirudin] | – | – | 2.7 | 47 | up to 7.5 mg/kg
